Experimental data as given in ChEMBL document CHEMBL1131128, “Structure-based design of cathepsin K inhibitors containing a benzyloxy-substituted benzoyl peptidomimetic” (J Med Chem, 1998).
pKi: −log10 of the molar value.

How the values were obtained:
Cathepsin K = target: T1, Cathepsin K (Homo sapiens, UniProt P43235); experiment: Relative binding affinity was measured for Cathepsin K; details: read-out: Ki app
T1 sequence (P43235 whole entry): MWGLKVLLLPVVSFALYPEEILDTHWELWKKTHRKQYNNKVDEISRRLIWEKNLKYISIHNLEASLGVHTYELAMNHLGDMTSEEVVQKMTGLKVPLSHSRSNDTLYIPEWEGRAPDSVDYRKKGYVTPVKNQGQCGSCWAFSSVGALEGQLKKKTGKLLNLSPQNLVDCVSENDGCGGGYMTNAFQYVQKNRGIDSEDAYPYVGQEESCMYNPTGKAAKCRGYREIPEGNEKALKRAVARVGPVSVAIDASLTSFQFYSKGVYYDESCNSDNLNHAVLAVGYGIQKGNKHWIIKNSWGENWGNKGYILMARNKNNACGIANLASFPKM

[1] = target: T2, Cathepsin K (Homo sapiens) (UniProt P43235); experiment: Second order rate constant was measured for the inhibition of Cathepsin K
T2 sequence (whole entry): T1 sequence (P43235 whole entry)

Row | Compound | pKi (Cathepsin K) | second-order inhibition rate constant (kobs/[I]) [1] [M⁻¹ s⁻¹]
1 | CCC[C@H](NC(=O)OCc1ccccc1)C(=O)NNC(=O)NNC(=O)[C@H](CC(C)C)NC(=O)OCc1ccccc1 | 9.10 | 4e+06
2 | CC(C)C[C@H](NC(=O)OCc1ccccc1)C(=O)NNC(=O)NNC(=O)[C@H](CC(C)C)NC(=O)OCc1ccccc1 | 9.15 | 3.1e+06
3 | CC(C)C[C@H](NC(=O)OCc1ccccc1)C(=O)NNC(=O)NNC(=O)c1cccc(OCc2ccccc2)c1 | 7.57 | 224000
4 | CC(C)C[C@H](NC(=O)OCc1ccccc1)C(=O)NNC(=O)NNC(=O)c1ccccc1 | 6.92 | 38000
5 | CC(C)C[C@H](NC(=O)OCc1ccccc1)C(=O)NNC(=O)NNC(=O)[C@H](C)NC(=O)OCc1ccccc1 | 9.00 | 685000
6 | CC[C@H](NC(=O)OCc1ccccc1)C(=O)NNC(=O)NNC(=O)[C@H](CC(C)C)NC(=O)OCc1ccccc1 | 8.47 | 490000
7 | CC(C)C[C@H](NC(=O)OCc1ccccc1)C(=O)NNC(=O)NNC(=O)c1ccc(OCc2ccccc2)cc1 | 7.00 | 44000
8 | CC(C)C[C@H](NC(=O)OCc1ccccc1)C(=O)NNC(=O)NNC(=O)c1ccccc1OCc1ccccc1 | 7.92 | 318000
